Assay results from ChEMBL document CHEMBL1131130, “Structure-based design of beta-lactamase inhibitors. 1. Synthesis and evaluation of bridged monobactams” (J Med Chem, 1998).
In brackets after ≈: the same amount, converted by molar mass. Each block holds one molecule with its values, some of them ahead of it. Activity calls are given as the source filed them. No cut-off for these calls is given here.

Key:
Beta-lactamase = Beta-lactamase (Pseudomonas aeruginosa (strain ATCC 15692 / PAO1 / 1C / PRS 101 / LMG12228), UniProt P24735); assay: Inhibition of Pseudomonas aeruginosa 18SH Beta-lactamase.
Chain of Beta-lactamase (P24735 whole entry): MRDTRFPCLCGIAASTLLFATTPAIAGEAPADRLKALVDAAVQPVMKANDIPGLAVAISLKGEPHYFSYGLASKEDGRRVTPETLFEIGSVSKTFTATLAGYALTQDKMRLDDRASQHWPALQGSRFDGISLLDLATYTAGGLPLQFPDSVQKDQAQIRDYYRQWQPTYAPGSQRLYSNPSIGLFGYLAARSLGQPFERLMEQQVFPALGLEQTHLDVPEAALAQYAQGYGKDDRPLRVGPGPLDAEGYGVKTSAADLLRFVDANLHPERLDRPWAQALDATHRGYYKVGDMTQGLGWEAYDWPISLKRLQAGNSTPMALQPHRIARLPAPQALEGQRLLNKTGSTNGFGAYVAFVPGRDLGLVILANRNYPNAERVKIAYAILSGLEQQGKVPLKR

Escherichia coli = assay: In vitro inhibition of Escherichia coli TEM-3 growth.; assay type: functional
[1] = biological target: Beta-lactamase (Pseudomonas aeruginosa (strain ATCC 15692 / PAO1 / 1C / PRS 101 / LMG12228)) (UniProt P24735)
Chain of Beta-lactamase (Pseudomonas aeruginosa (strain ATCC 15692 / PAO1 / 1C / PRS 101 / LMG12228)) (P24735 27-397 limits assumed): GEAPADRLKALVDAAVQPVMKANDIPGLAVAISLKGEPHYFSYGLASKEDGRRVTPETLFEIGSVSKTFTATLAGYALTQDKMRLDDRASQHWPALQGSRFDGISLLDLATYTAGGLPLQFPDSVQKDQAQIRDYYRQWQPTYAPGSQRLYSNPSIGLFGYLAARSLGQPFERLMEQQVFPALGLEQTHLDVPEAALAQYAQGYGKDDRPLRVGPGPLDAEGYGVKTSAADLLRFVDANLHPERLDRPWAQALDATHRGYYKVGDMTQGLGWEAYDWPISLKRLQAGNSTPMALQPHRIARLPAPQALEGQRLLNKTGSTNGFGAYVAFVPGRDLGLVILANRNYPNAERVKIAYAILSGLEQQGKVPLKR
Description: Affinity for stable acyl 18SH Beta-lactamase complex of Pseudomonas aeruginosa

[2] = Relative permeability as IC50 for beta lactamase inhibition in intact Pseudomonas aeruginosa growing cells to the observed IC50 in the same cells treated with 0.7% final concentration of octyl-poly(oxyethylene); assay type: functional
[3] = biological target: Beta-lactamase (Pseudomonas aeruginosa (strain ATCC 15692 / PAO1 / 1C / PRS 101 / LMG12228)) (UniProt P24735); remark: listed apart in the source
Description: Acylation of Pseudomonas aeruginosa 18SH Beta-lactamase

[4] = biological target: Beta-lactamase (Pseudomonas aeruginosa (strain ATCC 15692 / PAO1 / 1C / PRS 101 / LMG12228)) (UniProt P24735); remark: listed apart in the source
Description: Deacylation of 18SH Beta-lactamase of Pseudomonas aeruginosa

[5] = Relative permeability as IC50 for beta lactamase inhibition in intact Citrobacter freundii growing cells to the observed IC50 in the same cells treated with 0.7% final concentration of octyl-poly(oxyethylene); assay type: functional
Pseudomonas aeruginosa = assay: In vitro inhibition of Pseudomonas aeruginosa 18SH growth.; assay type: functional
Citrobacter freundii = assay: In vitro inhibition of Citrobacter freundii 1982 growth.; assay type: functional
[6] = Relative permeability as IC50 for beta lactamase inhibition in intact Pseudomonas aeruginosa growing cells to the observed IC50 in the same cells treated with 0.7% final concentration of octyl-poly(oxyethylene);NA= Not active; assay type: functional, cell-based
[7] = Relative permeability as IC50 for beta lactamase inhibition in intact Citrobacter freundii growing cells to the observed IC50 in the same cells treated with 0.7% final concentration of octyl-poly(oxyethylene);NA= Not active; assay type: functional, cell-based
Beta-lactamase TEM = Beta-lactamase TEM (Escherichia coli, UniProt P62593); assay: Inhibitory activity against Escherichia coli TEM-3 Beta-lactamase;NA=not active
Chain of Beta-lactamase TEM (P62593 24-286 limits assumed): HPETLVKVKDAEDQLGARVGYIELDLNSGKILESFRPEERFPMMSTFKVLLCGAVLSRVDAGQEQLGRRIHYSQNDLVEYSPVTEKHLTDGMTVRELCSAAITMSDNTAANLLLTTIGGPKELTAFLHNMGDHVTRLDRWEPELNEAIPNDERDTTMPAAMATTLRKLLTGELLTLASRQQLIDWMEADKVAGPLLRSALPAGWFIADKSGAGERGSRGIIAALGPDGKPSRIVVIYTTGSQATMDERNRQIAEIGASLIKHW

[8] = biological target: Beta-lactamase (Pseudomonas aeruginosa (strain ATCC 15692 / PAO1 / 1C / PRS 101 / LMG12228)) (UniProt P24735); remark: listed apart in the source
Description: Time taken for deacylation of Pseudomonas aeruginosa 18SH Beta-lactamase

SMILES: NC(C(=O)N1CC[C@@H]2[C@H]1C(=O)N2S(=O)(=O)[O-])c1ccc(O)cc1.[Na+] (stereo partly drawn)
IC50 (Beta-lactamase): 0.09 µM | MIC (Escherichia coli): 8 µg/mL | Ks [1]: 6.9 µM | Ratio [2]: 8.2 | Kon [3]: 2.7 s⁻¹ | k off [4]: < 1e-05 s⁻¹ | Ratio [5]: 8.7

SMILES: O=C(OCc1ccccc1)N1C[C@H](F)[C@@H]2[C@H]1C(=O)N2S(=O)(=O)[O-].[Na+]
IC50 (Beta-lactamase): 0.38 µM | MIC (Escherichia coli): 16 µg/mL | MIC (Pseudomonas aeruginosa): > 16 µg/mL | MIC (Citrobacter freundii): > 16 µg/mL

SMILES: O=C(O)[C@H]1/C(=C/CO)O[C@@H]2CC(=O)N21 [CLAVULANIC ACID]
MIC (Escherichia coli): 0.25 µg/mL (≈ 1.26 µM) | MIC (Pseudomonas aeruginosa): > 32 µg/mL | MIC (Citrobacter freundii): 8 µg/mL (≈ 40.2 µM)

SMILES: CC(C)(C)OC(=O)N1CCC[C@@H]2[C@H]1C(=O)N2S(=O)(=O)[O-].[Na+]
Ratio [6]: inactive | IC50 (Beta-lactamase): 145 µM | MIC (Escherichia coli): 16 µg/mL | Ks [1]: 3500 µM | Kon [3]: 0.5 s⁻¹ | k off [4]: 0.0007 s⁻¹ | Ratio [7]: inactive

SMILES: CC(C)(C)OC(=O)N1CC[C@@H]2[C@H]1C(=O)N2S(=O)(=O)[O-].[Na+]
IC50 (Beta-lactamase): 1.5 µM | MIC (Escherichia coli): 16 µg/mL | Ks [1]: 127 µM | Ratio [2]: 24 | Kon [3]: 11 s⁻¹ | k off [4]: 3.7e-05 s⁻¹ | Ratio [7]: inactive

SMILES: O=C(NC1CCNCC1)N1CC[C@@H]2[C@H]1C(=O)N2S(=O)(=O)[O-].[Na+]
IC50 (Beta-lactamase): 3.9 µM | MIC (Escherichia coli): 16 µg/mL | Ks [1]: 1480 µM | Ratio [2]: 1 | Kon [3]: 1.5 s⁻¹ | k off [4]: 0.0012 s⁻¹ | Ratio [5]: 1.7

SMILES: O=C(Nc1ccc(O)cc1)N1CC[C@@H]2[C@H]1C(=O)N2S(=O)(=O)[O-].[Na+]
IC50 (Beta-lactamase): 0.155 µM | MIC (Escherichia coli): 8 µg/mL | Ks [1]: 50 µM | Ratio [2]: 38 | Kon [3]: 0.4 s⁻¹ | k off [4]: 5.3e-05 s⁻¹ | Ratio [5]: 0.6

SMILES: O=C(Nc1ccccc1)N1CC[C@@H]2[C@H]1C(=O)N2S(=O)(=O)[O-].[Na+]
MIC (Escherichia coli): 4 µg/mL | MIC (Pseudomonas aeruginosa): 8 µg/mL | IC50 (Beta-lactamase TEM): 0.42 µM (not active) | MIC (Citrobacter freundii): 2 µg/mL

SMILES: [NH-]C(=O)c1ccc[n+](CC(=O)N2CC[C@@H]3[C@H]2C(=O)N3S(=O)(=O)[O-])c1.[Na+]
IC50 (Beta-lactamase): 0.027 µM | MIC (Escherichia coli): 8 µg/mL | Ks [1]: 65 µM | Ratio [2]: 1.2 | Kon [3]: 0.9 s⁻¹ | k off [8]: 9e-06 s⁻¹ | Ratio [5]: 0.8

SMILES: Cn1nnnc1S[C@@H]1CN(C(=O)OCc2ccccc2)[C@@H]2C(=O)N(S(=O)(=O)[O-])[C@@H]21.[Na+]
IC50 (Beta-lactamase): 0.613 µM | MIC (Escherichia coli): 16 µg/mL | Ks [1]: 15 µM | Ratio [2]: 68 | Kon [3]: 3.8 s⁻¹ | k off [4]: 4.1e-05 s⁻¹ | Ratio [5]: 10

Now from value to molecule:

IC50 (Beta-lactamase): 0.2 µM | MIC (Escherichia coli): 8 µg/mL | MIC (Pseudomonas aeruginosa): 8 µg/mL | MIC (Citrobacter freundii): 0.5 µg/mL
SMILES: Cn1nnnc1SCC(=O)N1CC[C@@H]2[C@H]1C(=O)N2S(=O)(=O)[O-].[Na+]

IC50 (Beta-lactamase): 0.025 µM | MIC (Escherichia coli): 8 µg/mL | MIC (Pseudomonas aeruginosa): 128 µg/mL | MIC (Citrobacter freundii): 8 µg/mL
SMILES: O=C(CNc1ccc(O)cc1)N1CC[C@@H]2[C@H]1C(=O)N2S(=O)(=O)[O-].[Na+]

IC50 (Beta-lactamase): 0.853 µM | MIC (Escherichia coli): 8 µg/mL | MIC (Pseudomonas aeruginosa): 128 µg/mL | MIC (Citrobacter freundii): 1 µg/mL
SMILES: Cn1cnnc1SCC(=O)N1CC[C@@H]2[C@H]1C(=O)N2S(=O)(=O)[O-].[Na+]

IC50 (Beta-lactamase): 0.612 µM | MIC (Escherichia coli): 16 µg/mL | MIC (Pseudomonas aeruginosa): 8 µg/mL | MIC (Citrobacter freundii): 1 µg/mL
SMILES: Cn1ccnc1SCC(=O)N1CC[C@@H]2[C@H]1C(=O)N2S(=O)(=O)[O-].[Na+]

IC50 (Beta-lactamase): 1.03 µM | MIC (Escherichia coli): 16 µg/mL | MIC (Pseudomonas aeruginosa): > 16 µg/mL | MIC (Citrobacter freundii): > 16 µg/mL
SMILES: NC(=O)/C=C1\CN(C(=O)OCc2ccccc2)[C@@H]2C(=O)N(S(=O)(=O)[O-])[C@H]12.[Na+]

IC50 (Beta-lactamase): 0.11 µM | MIC (Escherichia coli): 16 µg/mL | MIC (Pseudomonas aeruginosa): 8 µg/mL | MIC (Citrobacter freundii): 0.5 µg/mL
SMILES: O=C(/C=C/c1c[nH]cn1)N1CC[C@@H]2[C@H]1C(=O)N2S(=O)(=O)[O-].[Na+]

IC50 (Beta-lactamase): 0.217 µM | MIC (Escherichia coli): 16 µg/mL | MIC (Pseudomonas aeruginosa): 4 µg/mL | MIC (Citrobacter freundii): 0.5 µg/mL
SMILES: NC(=O)c1ccc(NC(=O)N2CC[C@@H]3[C@H]2C(=O)N3S(=O)(=O)[O-])cc1.[Na+]

IC50 (Beta-lactamase): 0.2 µM | MIC (Escherichia coli): 16 µg/mL | MIC (Pseudomonas aeruginosa): 128 µg/mL | MIC (Citrobacter freundii): 8 µg/mL
SMILES: O=C(OCc1ccccc1)N1CC[C@@H]2[C@H]1C(=O)N2S(=O)(=O)[O-].[Na+]

IC50 (Beta-lactamase): 0.048 µM | MIC (Escherichia coli): 16 µg/mL | MIC (Pseudomonas aeruginosa): 4 µg/mL | MIC (Citrobacter freundii): 0.25 µg/mL
SMILES: NC(=O)Nc1ccc(NC(=O)N2CC[C@@H]3[C@H]2C(=O)N3S(=O)(=O)[O-])cc1.[Na+]

IC50 (Beta-lactamase): 0.055 µM | MIC (Escherichia coli): 16 µg/mL | MIC (Pseudomonas aeruginosa): 16 µg/mL | MIC (Citrobacter freundii): 0.25 µg/mL
SMILES: Cc1nn(C)c(SCC(=O)N2CC[C@@H]3[C@H]2C(=O)N3S(=O)(=O)[O-])nc1=O.[Na+]

IC50 (Beta-lactamase): 2.25 µM | MIC (Escherichia coli): 16 µg/mL | MIC (Pseudomonas aeruginosa): 4 µg/mL | MIC (Citrobacter freundii): 1 µg/mL
SMILES: O=C1NCC[C@@H]1NC(=O)N1CC[C@@H]2[C@H]1C(=O)N2S(=O)(=O)[O-].[Na+]

IC50 (Beta-lactamase): 0.024 µM | MIC (Escherichia coli): 16 µg/mL | MIC (Pseudomonas aeruginosa): 16 µg/mL | MIC (Citrobacter freundii): 1 µg/mL
SMILES: NC(=O)c1cccc(NC(=O)N2CC[C@@H]3[C@H]2C(=O)N3S(=O)(=O)[O-])c1.[Na+]
